Type in all cases: in vivo, human
One experiment concerns Krt-17 mRNA. Briefly: RT-PCR of keratin-17 mRNA relative to β-actin in SLS-irritated and control skin (tape and biopsy). Particulars: for Fold Increase Krt-17/βactin mRNA ratio vs. normal, Tape, SLS: 1% SLS patch 24 hours vs untreated skin, tape-stripped RNA, per subject and Average, sulfate. An excerpt: (§1) The samples analyzed in this study are those described in the protocol performed by Wong et al. (Wong, Tran et al. 2004). […] Patches were removed and equivalent skin sites were biopsied and tape stripped as described in the Examples above. As an additional control, normal skin was also biopsied and tape stripped. Samples were processed for total RNA and assayed for keratin-10, keratin-16, keratin-17 and β-actin mRNA. The keratin mRNAs were normalized to β-actin mRNA in each sample. The semi-quantitative RT-PCR assay has been previously described (Wong, Tran et al. 2004).

Another experiment concerns IL-8 mRNA. Briefly: Semi-quantitative RT-PCR of IL-8 mRNA relative to β-actin in SLS-occluded skin (tape and biopsy). An excerpt:
Clinical protocols: The study protocols were reviewed and approved by an independent IRB (BioMed IRB, San Diego) and all subjects signed informed consent. Ten healthy women, ages 21-55 were enrolled in the study. Regions of unblemished, normal appearing skin on the mid back were chosen for the application of 2 occlusive patches in the form of bandages approximately 4 cm×6.5 cm. The bandages were made using a clear, non-porous plastic hypoallergenic adhesive tape. In the center of this tape was a Webril (non-woven cotton) patch measuring approximately 2 cm×4.5 cm. One Webril patch contained 0.6 ml of 1% aqueous sodium lauryl sulfate and the other contained 0.6 ml of sterile water as the vehicle control. […] At 24 hours post application, the SLS and water patches were removed and the skin allowed to air dry for 15 minutes before scoring. The sites were scored by a trained technician using the scale provided below. Patched sites were large enough that two areas could be tape harvested without overlap and room left for a shave biopsy (˜2×2 mm). Skin sites were tape stripped with 4 tapes each and then a shave biopsy taken under local anesthetic (lidocaine HCl 1% and epinephrine 1:100,000; Abbott Laboratories). The tapes were applied to the skin using 20 seconds of firm pressure with a circular motion The tape used for tape stripping was a synthetic rubber-based adhesive on a polyurethane film (Product No. 90068, Adhesive Research, Glen Rock, Pa.). An area of uninvolved skin was tape harvested and shave biopsied in an identical manner. Tapes were stored in individual eppendorf tubes at −80 until extraction; biopsy samples were placed in buffer RLT and stored at −80 until extraction. Skin responses to each patch application were examined and graded under light supplied by a 100-watt incandescent blue bulb. The following grading scale was used: 0, no visible reaction; 1, slight, pink, patchy erythema; 2, mild confluent, pink erythema; 3, moderate erythema (definite redness) with edema; 4, strong erythema (very intense redness) with edema. In a second study, 3 subjects had 3 patches containing 1% SLS and 3 water patches applied to the mid back for 24 hours: Patches were removed, scored and tape stripped as above. In a third study, two individuals were tape stripped on uninvolved skin on the upper back at three adjacent sites as above. RNA harvested in these last two studies was used in the DNA microarray experiments described below.
Isolation of RNA: The RNA within skin cells adherent to the 4 tapes used to harvest a site was pooled by simultaneously extracting the tapes in a volume of buffer RLT (supplied with RNeasy kit). Extraction was performed using the manufacturer's directions and included a Proteinase K digestion, sonication of tapes and “on-column” DNase I digestion. RNA was eluted in 100 microliters of sterile, RNase free water. Extraction of biopsies was performed with the same kit according to the manufacturer's instructions.
Quantitative RT-PCR: 10 μl of RNA was reverse transcribed (RT) into cDNA with the Sensiscript Reverse Transcriptase kit and random hexamers in a final volume of […] according to the manufacturer's directions. The reaction was diluted 5-fold with sterile, nuclease-free water (Ambion) for use in the subsequent amplification/detection reaction. For each specific mRNA detection, 3 replicate RT^+ reactions and one RT^− (no reverse transcriptase; negative control) reaction were performed. Two amplification/detection reactions were done on each RT^+ reaction to yield a total of 6 independent determinations of the threshold value (Ct; discussed below).
Amplification and detection of specific mRNA: Specific mRNAs were converted to cDNA as described above. Specific cDNAs were semi-quantified using gene specific primer/probes (5′-nuclease assay) and fluorescence detection.

Another experiment has as its system Krt-16 mRNA. Briefly: RT-PCR of keratin-16 mRNA relative to β-actin in SLS-irritated and control skin (tape and biopsy). Details: key to ΔCt,Krt-16, Tape, SLS / ΔCt,Krt-16, Biopsy, SLS: ΔCt: keratin mRNA Ct normalized to β-actin Ct in same sample.
Description: as §1

[1] abbreviates: SLS-occluded skin vs uninvolved skin.

Where “and” joins values, the source holds several entries; their conditions need not be identical. Identical values can stand only once. Marks after values point to notes of the source that are not given here.

With `CCCCCCCCCCCCOS(=O)(=O)[O-].[Na+]` [SLS, sodium lauryl sulfate], the “Fold Increase Krt-17/βactin mRNA ratio vs. normal, Tape, SLS” value in the experiment on Krt-17 mRNA is 1.67 fold and 0.02 fold (2×) and 0.01 fold and 0.17 fold and 0.05 fold and 0.04 fold and 0.5 fold. Also, the “Fold Increase Krt-17/βactin mRNA ratio vs. normal, Tape, SLS” value with Krt-17 mRNA (mean) turned out to be 0.12 fold. For the same compound, in the experiment with Krt-17 mRNA (SLS-treated skin vs untreated), the “average fold-increase of K17, biopsy” value was found to be 42 fold and the “decrease of K17/actin mRNA ratio, tape” value was found to be 8 fold. For the same compound, the “fold-change in IL-8/β-actin mRNA ratio, Biopsy” value with IL-8 mRNA (SLS-occluded skin relative to uninvolved skin, biopsy samples, per subject, > = minimum estimate, sulfate) is >171**^† fold and >12**^† fold and >101**^† fold and >778**^† fold and >42**^† fold and >594**^† fold and >368**^† fold and >1.1 fold (2×) and 84**^† fold. For the same compound, in the experiment on IL-8 mRNA (SLS-occluded skin relative to uninvolved skin, tape samples, per subject, > = minimum estimate, sulfate), the “fold-change in IL-8/β-actin mRNA ratio, Tape” value is 24**^† fold and >9.3**^† fold and >6.8** fold and >235**^† fold and >41**^† fold and 18** fold and >3** fold and 6**^† fold. For the same compound, in the experiment with IL-8 mRNA (setting [1]), the “biopsy samples with significant increases in IL-8/actin mRNA ratio” value is 8 of 10 and the “tape-harvested samples with significantly increased IL-8/β-actin mRNA ratio” value is given as 8 of 10. For the same compound, in the experiment on IL-8 mRNA (SLS-occluded skin, biopsy RNA, per subject and average, sulfate), the “ΔCt,IL-8, Biopsy” value was 4.13 and 6.56 ± 0.10 and 3.06 ± 0.11 and 0.76 ± 0.13 and 5.11 ± 0.06 and 1.67 ± 0.08 and 1.06 ± 0.07 and 9.81 ± 0.26 and 9.15 ± 0.15 and 1.82 ± 0.05 and 2.29 ± 0.13. Moreover, in the experiment on IL-8 mRNA (SLS-occluded skin, tape-harvested RNA, per subject and average, > = minimum ΔCt (Ct assigned 37), sulfate), the “ΔCt,IL-8, Tape” value is −1.28 and −0.89 and −1.28 ± 0.11 and −3.05 ± 0.15 and −0.05 ± 0.11 and −0.68 ± 0.08 and −0.44 ± 0.06 and 0.02 ± 0.17 and 0.56 ± 0.07 and >1.51 ± 0.17 and −0.36 ± 0.05 and −2.59 ± 0.07. The “IL-8/actin mRNA ratio of subject 4's SLS site vs average for water-occluded samples” value with IL-8 mRNA (tape-harvested, from ΔCt −1.28 and average ΔCt 1.54) is on record as 7.1 fold. In addition, the “IL-8/β-actin mRNA ratio of subject 4's SLS site vs average value for uninvolved skin” value in the experiment on IL-8 mRNA (tape-harvested, from ΔCt −1.28 and average ΔCt >2.49) is given as ≥ 13.6 fold. Also, in the experiment on Krt-16 mRNA (1% SLS occlusive patch 24 hours, mid-back, biopsy RNA, relative to β-actin, per subject 1-10 and Average, sulfate), the “ΔCt,Krt-16, Biopsy, SLS” value is 0.97 and −2.43 and −2.21 and 1.41 and −1.12 and −1.75 and −2.01 and −1.79 and 0.74 and −0.32. Moreover, the “ΔCt,Krt-16, Tape, SLS” value in the experiment with Krt-16 mRNA (1% SLS occlusive patch 24 hours, mid-back, tape-stripped RNA, relative to β-actin, per subject 1-10 and Average, sulfate) is −4.51 and 3.04 and 3.96 and −2.87 and 0.53 (2×) and 3.1 and 4.32 and 2.87 and −0.97. Also, the “Fold Increase Krt-16/actin mRNA ratio vs. normal, Biopsy, SLS” value in the experiment on Krt-16 mRNA (1% SLS patch 24 hours vs untreated skin, biopsy RNA, per subject and Average, sulfate) is 14.73 fold and 76.61 fold and 55.14 fold and 18.4 fold and 30.85 fold and 113.69 fold and 108.78 fold and 82.98 fold and 8.57 fold and 24.78 fold. Besides, the “Fold Increase Krt-16/actin mRNA ratio vs. normal, Tape, SLS” value in the experiment on Krt-16 mRNA (1% SLS patch 24 hours vs untreated skin, tape-stripped RNA, per subject and Average, sulfate) is 1.25 fold and 0.03 fold and 0.01 fold and 0.2 fold and 0.02 fold and 0.04 fold and 0.17 fold. Further, in the experiment with Krt-16 mRNA (SLS-treated skin vs untreated), the “average decrease in K16 expression, tape” value worked out at 9 fold and the “average fold-increase of K16 mRNA expression, biopsy” value is listed as 39 fold.

Source of the values: patent US7989165B2, “Tape stripping methods for analysis of skin disease and pathological skin state” (DermTech International, priority 2004, dated 2011).
